# Test results reported in US11955208B2, “Computational systems and methods for improving the accuracy of drug toxicity predictions” (Cornell University, priority 2016, dated 2024).
# Experiments:
# [1] = in vivo; cited from earlier work
# breast cancer patients = conditions: recent clinical trials; cited from earlier work
# DRD2L [2] = target: T1, DRD2L (Homo sapiens, UniProt P14416)
# [3] = test system: D2-like (DRD2/3/4) subfamily of dopamine receptors; conditions: arrestin recruitment
# Protocol: (§1) To test the target prediction, in vitro profiling of GPCR activity using a hetereologous reporter assay for arrestin recruitment, a hallmark of GPCR activation was performed.
# [4] = test system: short and long isoforms of DRD2; conditions: arrestin recruitment
# Protocol: as §1
# [5] = test system: nuclear hormone receptors, the kinome, or other drug targets of FDA-approved cancer therapies
# DRD2L [6] = target: T1, DRD2L; assay: antagonism of arrestin recruitment to DRD2L, Gaddam/Schild EC50 shift analysis; type: cell-based; design: expressed in transfected cells; conditions: dopamine completely reversed dose-dependent antagonism of up to 100 uM ONC201
# Protocol: as §1
# other GPCRs = assay: GPCR profiling, heterologous reporter assay for arrestin recruitment; type: cell-based; conditions: under the evaluated conditions
# Protocol: as §1
# [7] = test system: D1-like (DRD1/5) subfamily of dopamine receptors; assay: as above; type: cell-based
# Protocol: as §1
# T1 sequence (P14416 whole entry): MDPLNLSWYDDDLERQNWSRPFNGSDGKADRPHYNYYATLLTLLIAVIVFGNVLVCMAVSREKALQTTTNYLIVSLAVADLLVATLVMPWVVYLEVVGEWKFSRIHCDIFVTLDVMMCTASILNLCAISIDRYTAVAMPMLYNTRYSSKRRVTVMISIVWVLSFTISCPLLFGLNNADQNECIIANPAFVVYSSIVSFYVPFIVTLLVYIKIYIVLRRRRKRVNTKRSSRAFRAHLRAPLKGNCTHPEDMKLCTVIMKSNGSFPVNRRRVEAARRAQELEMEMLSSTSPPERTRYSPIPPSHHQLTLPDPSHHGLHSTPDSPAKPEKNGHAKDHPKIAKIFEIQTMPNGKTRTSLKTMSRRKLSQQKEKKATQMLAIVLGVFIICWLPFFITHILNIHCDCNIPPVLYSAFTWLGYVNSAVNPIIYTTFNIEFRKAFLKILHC
compound,measurement,setting,value
CC(=O)O[C@@]12CO[C@@H]1C[C@H](O)[C@@]1(C)C(=O)[C@H](O)C3=C(C)[C@@H](OC(=O)[C@H](O)[C@@H](NC(=O)OC(C)(C)C)c4ccccc4)C[C@@](O)([C@@H](OC(=O)c4ccccc4)[C@H]21)C3(C)C [docetaxel],associated adverse event,[1],neutropenia
C=C1C[C@@H]2CC[C@@]34C[C@H]5O[C@H]6[C@@H](O3)[C@H]3O[C@H](CC[C@@H]3O[C@H]6[C@H]5O4)CC(=O)C[C@@H]3[C@@H](OC)[C@@H](C[C@H](O)CN)O[C@H]3C[C@H]3O[C@@H](CC[C@@H]1O2)C[C@@H](C)C3=C [Eribulin],breast cancer patients showing any detectable response after treatment,breast cancer patients,< 50%
CC(C)C[C@H](NC(=O)[C@H](Cc1ccccc1)NC(=O)c1cnccn1)B(O)O [bortezomib],associated adverse event,[1],peripheral neuropathy
CN(CCOc1ccc(CC2SC(=O)NC2=O)cc1)c1ccccn1 (centres unmarked) [rosiglitazone],associated adverse event,[1],elevated risk of heart attack
Cc1ccccc1CN1C(=O)C2=C(CCN(Cc3ccccc3)C2)N2CCN=C12 [ONC201],cAMP modulation in response to compound,DRD2L [2],Confirmatory results
same,antagonism of D2-like dopamine receptors,[3],selectively antagonizes
same,antagonism of DRD2 short and long isoforms,[4],antagonized
same,"interactions with nuclear hormone receptors, kinome, other cancer drug targets",[5],no significant interactions
same,mode of antagonism of DRD2L,DRD2L [6],"direct, competitive antagonism"
same,antagonism of other GPCRs,other GPCRs,no observed antagonism
same,antagonism of D1-like dopamine receptors,[7],not D1-like
